Consider 18 molecules from US9945843B2, “Methods for identifying compounds that inhibit G protein-coupled receptor (GPR84) agonist-stimulated chemotaxis” (GALAPAGOS NV, priority 2011, dated 2018).

The test system of test [1] is IL8-stimulated chemotaxis of neutrophils. Briefly: Human neutrophil migration assay, IL8 as chemotactic agent. The following applies: for inhibition at 0.1 µM: read-out: Percentage of chemotaxis inhibition (PIN) @ 0.1 μM; for inhibition at 1 µM: read-out: Percentage of chemotaxis inhibition (PIN) @ 1 μM; for inhibition at 10 µM: read-out: Percentage of chemotaxis inhibition (PIN) @ 10 μM.
Procedure: In the neutrophil migration assay, neutrophils, freshly isolated from buffy coats from human volunteers, are treated with a compound for 30 minutes. Subsequently, the neutrophils are transferred to the upper wells of a Corning HTS transwell 96 permeable support system, of which the lower wells are filled with a Embelin solution.
A human buffy coat is diluted with an equal volume of ice cold DPBS. 20 mL of the diluted buffy coat was gently mixed with 4 mL of ACD buffer (140 mM citric acid, 200 mM sodium citrate and 220 mM dextrose). Then, 12 mL of the 6% dextran/0.9% NaCl solution (15 g dextran T2000 and 2.25 g NaCl dissolved in 250 mL H2O) is added to the mixture and the samples are inverted gently up to 20 times. The total volume is transferred to a new recipient and incubated at room temperature for 1 h for complete separation of the two phases to occur. The yellowish supernatant is then transferred to a clean centrifugation tube and centrifuged for 12 minutes at 1300 rpm and 4° C. After centrifugation, the supernatant is discarded and the remaining cell pellet is rapidly resuspended in 12 mL of ice-cold H2O for red blood cell lysis to occur. After 20 seconds, 4 mL of ice-cold 0.6 M KCl is added.
A cell suspension of 8.9×10^6 cells per milliliter is prepared. 20 μL of compound solution in chemotaxis buffer is added to 180 μL cell suspension. The mixture is incubated at 37° C. for 30 minutes with intermediate resuspension of the cells after 15 minutes. […] The receiver well of the transwell system is then filled with 200 μL chemotaxis buffer containing compound and chemotactic agent (Embelin). After incubation at 37° C. in 5% CO2 for 1 h, the upper plate of the transwell system was removed and the cell suspension in the receiver plate is transferred to a 96-well V-bottom plate. 50 μL of DPBS is added to the receiver plate to prevent remaining cells from drying out. The V-bottom plate is centrifuged for 6 minutes at 1500 rpm. The supernatant is removed and the cells are resuspended in 50 μL DPBS. The cells are then transferred back to the receiver plate of the transwell system. […] The plate is incubated for 10 minutes in the dark, while shaking. 170 μL of cell lysate is then transferred to a white 96-well plate and luminescence is measured. The detected luminescent signal is considered as linearly related to the number of cells having migrated from the upper well to the receiver well.
The same assay as described above is also performed using IL8 (25 ng/mL) as a chemotactic agent instead of Embelin.

Test [2] deals with T1, GPR84 (Homo sapiens, UniProt Q9NQS5). Briefly: Functional GPR84 activation assay: GTP-γS binding assay. Also noted: expressed in transfected cells. Type of test: biochemical. The following applies: membranes over expressing GPR84; 3,3′ di indolylmethane at EC80; read-out: GTPgS binding EC50. The method, then: The following assay can be used for determination of GPR84 activation.
The assay is performed in a 96 well plate where the following reagents were added. […] In a last step, 30 μL of a mixture consisting of membranes-GTPγS-SpA beads is added [mixture consists of 20 μg/well membranes derived from stable cell line over expressing GPR84 (membranes are pre-incubated with 0.1 μM GDP for 15 min at 4° C.), 0.1 nM [^35S]GTPγS (Perkin Elmer, NEG030) and 0.5 mg/well PVT-WGA SpA beads (Perkin Elmer, RPNQ0001)]. All components are diluted in assay buffer containing 20 mM Hepes pH 7.4; 5 mM MgCl2; 250 mM NaCl; 0.05% BSA; 75 ug/mL saponin. Reactions are incubated for 90 min at room temperature followed by centrifugation at 2000 rpm for 15 min. Plates are read on a Topcount reader (Perkin Elmer) immediately after centrifugation (readout time, 1 min/well).

Test [3] concerns the target T1, GPR84. Briefly: Human neutrophil migration inhibition assay, Embelin as chemotactic agent. The following applies: for inhibition at 0.1 µM / inhibition at 1 µM / inhibition at 10 µM: 5 μM Embelin; for inhibition at 0.1 µM: compound 0.1 μM, read-out: Percentage of chemotaxis inhibition (PIN) @ 0.1 μM; for inhibition at 1 µM: compound 1 μM, read-out: Percentage of chemotaxis inhibition (PIN) @ 1 μM; for inhibition at 10 µM: compound 10 μM, read-out: Percentage of chemotaxis inhibition (PIN) @ 10 μM; for IC50: human neutrophils, Embelin as chemotactic agent, read-out: Embelin-induced neutrophil chemotaxis IC50; for induction of neutrophil chemotaxis: GPR84 agonist used as chemotactic agent. It counts as cell-based.

Test [4] relates to RAW264.7 murine macrophage-like cells. The following applies: RAW264.7 cells stimulated with LPS; cited from earlier work.
Test [5] addresses T1, GPR84. Further details: expressed in transfected cells. The following applies: Wang 2006; WO 2007/027661; cited from earlier work.
Test [6] deals with chronic DSS-induced colitis. Briefly: Mouse chronic DSS-induced inflammatory bowel disease model. Type of test: in vivo. The following applies: female BALB/c mice, p.o., data not shown. The source says: The compounds identified using the assay method described in Example 2, or others herein, can be further validated in vivo using known disease models. The mouse chronic DSS-induced inflammatory bowel disease model (IBD) is a well validated disease model for inflammatory bowel disease (Wirtz S. et al., 2007 Nature Protocols 2, 541-546; Sina C. et al., 2009 J. Immunol 183 7514-7522).
To induce a chronic colitis, female BALB/c mice are fed with 4% dextran sodium sulfate (DSS) dissolved in drinking water for 4 days, followed by 3 days of regular drinking water. This cycle is repeated three times. This protocol allows inducing a strong colitis while avoiding high mortality rates. Animals are divided into several groups: • intact (water; vehicle alone, n=10), • diseased (DSS; vehicle alone, n=10), • sulfazalazine used as reference (DSS; sulfazalazine, p.o., n=10) and • the tested compound (DSS; test cpd, p.o., n=10).
Clinical parameters are measured every other day. The disease activity index (DAI) is a composite measure combining of the individual scores for weight loss, stool consistency and rectal bleeding. Mice are sacrificed at day 20 of the experiment according to the protocol introduced by Sina et al. (2009). At sacrifice time, the complete colon is removed and rinsed with sterile PBS. […]

T1 sequence (Q9NQS5 whole entry): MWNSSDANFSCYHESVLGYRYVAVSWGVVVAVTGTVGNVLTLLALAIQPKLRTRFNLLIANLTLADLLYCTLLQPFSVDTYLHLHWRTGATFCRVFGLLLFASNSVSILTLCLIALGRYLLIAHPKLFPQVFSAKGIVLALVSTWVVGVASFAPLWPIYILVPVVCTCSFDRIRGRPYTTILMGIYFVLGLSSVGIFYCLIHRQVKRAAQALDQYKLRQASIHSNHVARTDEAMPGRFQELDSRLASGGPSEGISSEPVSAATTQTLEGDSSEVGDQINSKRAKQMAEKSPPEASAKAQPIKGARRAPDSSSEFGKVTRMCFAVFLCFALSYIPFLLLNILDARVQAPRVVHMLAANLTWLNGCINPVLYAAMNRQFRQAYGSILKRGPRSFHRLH

As to `O=c1nc(OCC2COCCO2)cc2n1CCc1cc(C#CCNc3ccccc3)ccc1-2` (centres unmarked) [Cpd 3, 2-([1,4]Dioxan-2-ylmethoxy)-9-(3-phenylamino-prop-1-ynyl)-6,7-dihydro-pyrimido[6,1-a]isoquinolin-4-one], in test [1], the inhibition at 0.1 µM turned out to be 2%, the inhibition at 1 µM came to 1% and the inhibition at 10 µM was -13%. In addition, the EC50 in test [2] was found to be 25 nM. In addition, in test [3], the inhibition at 0.1 µM came to 38%, the inhibition at 1 µM stood at 81%, the inhibition at 10 µM was 72% and the half-inhibitory concentration (IC50) turned out to be 6.34 nM.

For `CCCCCCCCCCC(=O)O` [undecanoic acid], the “secretion of interleukin-12 p40 subunit (IL-12 p40)” value (“secretion” below) in test [4] is reported as “dose-dependently increased”.

For `CCCCCCCCCCCC(=O)O` [lauric acid], in test [4], the “secretion” value was “dose-dependently increased”.

Regarding `CCC(C)(C)CNc1ccc2c(c1)CCn1c-2cc(OC[C@@H]2COCCO2)nc1=O` [Cpd 8, 9-(2,2-Dimethyl-butylamino)-2-((S)-1-[1,4]dioxan-2-ylmethoxy)-6,7-dihydro-pyrimido[6,1-a]isoquinolin-4-one], in test [1], the inhibition at 0.1 µM was determined as 9%, the inhibition at 1 µM worked out at 15% and the inhibition at 10 µM was found to be 55%. The EC50 in test [2] is 69 nM. Moreover, in test [3], the inhibition at 0.1 µM was 52%, the inhibition at 1 µM was determined as 95%, the inhibition at 10 µM is 103% and the IC50 was 41.4 nM.

`O=c1nc(OC[C@@H]2COCCO2)cc2n1CCc1cc(CCCNc3ccccc3)ccc1-2` [Cpd 10, 2-((S)-1-[1,4]Dioxan-2-ylmethoxy)-9-(3-phenylamino-propyl)-6,7-dihydro-pyrimido[6,1-a]isoquinolin-4-one]: in test [1], the inhibition at 0.1 µM stood at 13%, the inhibition at 1 µM came to 7% and the inhibition at 10 µM came out at 24%. Further, the concentration giving a half-maximal response (EC50) in test [2] turned out to be 8 nM. Further, in test [3], the inhibition at 0.1 µM was determined as 71%, the inhibition at 1 µM was 87%, the inhibition at 10 µM was 80% and the IC50 was 9.3 nM.

`CCCC(O)C#Cc1ccc2c(c1)CCn1c-2cc(OCC2COCCO2)nc1=O` (centres unmarked) [Cpd 2, 2-([1,4]Dioxan-2-ylmethoxy)-9-(3-hydroxy-hex-1-ynyl)-6,7-dihydro-pyrimido[6,1-a]isoquinolin-4-one]: in test [1], the inhibition at 0.1 µM was 13%, the inhibition at 1 µM was -6% and the inhibition at 10 µM is 20%. Further, the EC50 in test [2] is 40 nM. Besides, in test [3], the inhibition at 0.1 µM came out at 86%, the inhibition at 1 µM was 94%, the inhibition at 10 µM worked out at 90% and the half-inhibitory concentration (IC50) was found to be 2.74 nM.

For `O=c1nc(OCC2COCCO2)cc2n1CCc1cc(CCC(O)c3cccnc3)ccc1-2` (centres unmarked) [Cpd 7, 2-([1,4]Dioxan-2-ylmethoxy)-9-(3-hydroxy-3-pyridin-3-yl-propyl)-6,7-dihydro-pyrimido[6,1-a]isoquinolin-4-one], in test [1], the inhibition at 0.1 µM was determined as 18%, the inhibition at 1 µM was 22% and the inhibition at 10 µM is 13%. Besides, in test [2], the EC50 turned out to be 41 nM. Besides, in test [3], the inhibition at 0.1 µM is 54%, the inhibition at 1 µM stood at 90%, the inhibition at 10 µM is 81% and the IC50 was determined as 83.4 nM.

As for `CC(C)C#Cc1ccc2c(c1)CCn1c-2cc(OC[C@@H]2COCCO2)nc1=O` [Cpd 5, 2-((S)-1-[1,4]Dioxan-2-ylmethoxy)-9-(3-methyl-but-1-ynyl)-6,7-dihydro-pyrimido[6,1-a]isoquinolin-4-one], in test [1], the inhibition at 0.1 µM is 30%, the inhibition at 1 µM is 29% and the inhibition at 10 µM amounted to 48%. Further, the EC50 in test [2] is 77 nM. In test [3], the inhibition at 0.1 µM worked out at 73%, the inhibition at 1 µM was 97%, the inhibition at 10 µM was 96% and the IC50 worked out at 62.2 nM.

`O=c1nc(OCC2COCCO2)cc2n1CCc1cc(COC3CCCC3)ccc1-2` (centres unmarked) [Cpd 4, 9-Cyclopentyloxymethyl-2-([1,4]dioxan-2-ylmethoxy)-6,7-dihydro-pyrimido[6,1-a]isoquinolin-4-one]: in test [1], the inhibition at 0.1 µM stood at 3%, the inhibition at 1 µM turned out to be 3% and the inhibition at 10 µM was 19%.

For the molecule `O=c1nc(OC[C@@H]2COCCO2)cc2n1CCc1cc(OCC3CCCCO3)ccc1-2` (stereo partly drawn) [Cpd 9, 2-((S)-1-[1,4]Dioxan-2-ylmethoxy)-9-(tetrahydro-pyran-2-ylmethoxy)-6,7-dihydro-pyrimido[6,1-a]isoquinolin-4-one], in test [1], the inhibition at 0.1 µM came to 25%, the inhibition at 1 µM worked out at 28% and the inhibition at 10 µM stood at 24%. Besides, the EC50 in test [2] stood at 75 nM. Also, in test [3], the inhibition at 0.1 µM came to 64%, the inhibition at 1 µM amounted to 94%, the inhibition at 10 µM stood at 88% and the concentration for half-maximal inhibition (IC50) came out at 40.8 nM.

Take `CCCCCCCCCCCC1=C(O)C(=O)C=C(O)C1=O` [Embelin, 2,5-dihydroxy-3-undecyl-2,5-cyclohexadiene-1,4-dione, reference compound]: the GPR84 agonist activity result in test [5] was “some GPR84 agonist activity”. In addition, the “induction of neutrophil chemotaxis” value in test [3] is given as “induce neutrophil chemotaxis”.

With `CCCCCCCCCC(=O)O` [capric acid], the “secretion” value in test [4] is listed as “dose-dependently increased”.

Take `CCCCCCCCCC(=O)[O-].[Na+]` [sodium decanoate, reference compound]: in test [3], the “induction of neutrophil chemotaxis” value was “induce neutrophil chemotaxis”.

In the case of `O=c1nc(OC[C@H]2COCCO2)cc2n1CCc1cc(COC3CCCC3)ccc1-2` [Cpd 6, 9-Cyclopentyloxymethyl-2-((R)-1-[1,4]dioxan-2-ylmethoxy)-6,7-dihydro-pyrimido[6,1-a]isoquinolin-4-one], in test [1], the inhibition at 0.1 µM stood at 20%, the inhibition at 1 µM amounted to 15% and the inhibition at 10 µM worked out at 35%.

As to `c1ccc2c(Cc3c[nH]c4ccccc34)c[nH]c2c1` [3,3′ di indolylmethane, reference compound], the GPR84 agonist activity entry in test [5] is on record as “some GPR84 agonist activity”. Besides, the “induction of neutrophil chemotaxis” value in test [3] was “induce neutrophil chemotaxis”.

On to `CC(O)CCCc1ccc2c(c1)CCn1c-2cc(OC[C@@H]2COCCO2)nc1=O` (stereo partly drawn) [Cpd 11, 2-((S)-1-[1,4]Dioxan-2-ylmethoxy)-9-(4-hydroxy-pentyl)-6,7-dihydro-pyrimido[6,1-a]isoquinolin-4-one], for which, in test [1], the inhibition at 0.1 µM came out at 7%, the inhibition at 1 µM turned out to be 0% and the inhibition at 10 µM was 12%. Further, in test [3], the inhibition at 0.1 µM was found to be 66%, the inhibition at 1 µM is 90%, the inhibition at 10 µM was 86% and the IC50 worked out at 3.9 nM.

Consider `O=c1nc(OCC2COCCO2)cc2n1CCc1cc(OCc3noc(C4CC4)n3)ccc1-2` (centres unmarked) [Cpd 1, 9-(5-Cyclopropyl-[1,2,4]oxadiazol-3-ylmethoxy)-2-([1,4]dioxan-2-ylmethoxy)-6,7-dihydro-pyrimido[6,1-a]isoquinolin-4-one], for which, in test [1], the inhibition at 0.1 µM was found to be 1%, the inhibition at 1 µM is -11% and the inhibition at 10 µM came to 17%. For the same molecule, in test [2], the 50% effective concentration (EC50) came to 36 nM. In addition, in test [3], the inhibition at 0.1 µM amounted to 69%, the inhibition at 1 µM worked out at 86%, the inhibition at 10 µM stood at 89% and the IC50 came out at 10.4 nM.

For `O=C(O)c1cc(/N=N/c2ccc(S(=O)(=O)Nc3ccccn3)cc2)ccc1O` [sulfazalazine], the “effect against chronic inflammatory bowel disease” value in test [6] is on record as “protective effect”.
